We go through seven compounds from ChEMBL document CHEMBL1158830, “Digitoxin inhibits the growth of cancer cell lines at concentrations commonly found in cardiac patients” (J Nat Prod, 2005).

The subject of data set [1] is TK-10. The data set can be described thus: Cytotoxicity against human TK10 cells after 48 hrs by SRB assay. Format: functional, cell-based. The following applies: TK-10, 48 h.
In a further data set the test system is MCF7. The data set can be described thus: Cytotoxicity against human MCF7 cells after 48 hrs by SRB assay. Format: functional, cell-based. The note with it: MCF7, 48 h.
In another data set the test system is UACC-62. The data set can be described thus: Cytotoxicity against human UACC62 cells after 48 hrs by SRB assay. Format: functional, cell-based. The following applies: UACC-62, 48 h.
Another data set is filed under the species Homo sapiens. The data set can be described thus: Plasma concentration in human. Format: ADME, organism-based. The following applies: in vivo.
Another data set relates to K562. As to the kind of experiment: Cytotoxicity against human K562 cells by XTT assay. Format: functional, cell-based.
Data set [2] has as its system TK-10. The data set can be described thus: Induction of apoptosis in human TK10 cells assessed as viable cells at 3 nM for 48 hrs measured after 3 days of drug removal by fluorescence microscopy assay. Format: functional. The following applies: read-out: Activity.
The test system of data set [3] is TK-10. As to the kind of experiment: Induction of apoptosis in human TK10 cells assessed as apoptotic cells at 3 nM for 48 hrs measured after 3 days of drug removal by fluorescence microscopy assay. The data set is classed as functional.
The test system of data set [4] is TK-10. The data set can be described thus: Induction of apoptosis in human TK10 cells assessed as necrotic cells at 3 nM for 48 hrs measured after 3 days of drug removal by fluorescence microscopy assay. Format: functional.
The target of data set [5] is DNA topoisomerase 2-alpha (Homo sapiens) (UniProt P11388). As to the kind of experiment: Inhibition of topoisomerase 2alpha-mediated cleavage of double-stranded pRYG DNA assessed as linear DNA at 30 nM by agarose gel electrophoresis.
Chain of DNA topoisomerase 2-alpha (Homo sapiens) (P11388 whole entry): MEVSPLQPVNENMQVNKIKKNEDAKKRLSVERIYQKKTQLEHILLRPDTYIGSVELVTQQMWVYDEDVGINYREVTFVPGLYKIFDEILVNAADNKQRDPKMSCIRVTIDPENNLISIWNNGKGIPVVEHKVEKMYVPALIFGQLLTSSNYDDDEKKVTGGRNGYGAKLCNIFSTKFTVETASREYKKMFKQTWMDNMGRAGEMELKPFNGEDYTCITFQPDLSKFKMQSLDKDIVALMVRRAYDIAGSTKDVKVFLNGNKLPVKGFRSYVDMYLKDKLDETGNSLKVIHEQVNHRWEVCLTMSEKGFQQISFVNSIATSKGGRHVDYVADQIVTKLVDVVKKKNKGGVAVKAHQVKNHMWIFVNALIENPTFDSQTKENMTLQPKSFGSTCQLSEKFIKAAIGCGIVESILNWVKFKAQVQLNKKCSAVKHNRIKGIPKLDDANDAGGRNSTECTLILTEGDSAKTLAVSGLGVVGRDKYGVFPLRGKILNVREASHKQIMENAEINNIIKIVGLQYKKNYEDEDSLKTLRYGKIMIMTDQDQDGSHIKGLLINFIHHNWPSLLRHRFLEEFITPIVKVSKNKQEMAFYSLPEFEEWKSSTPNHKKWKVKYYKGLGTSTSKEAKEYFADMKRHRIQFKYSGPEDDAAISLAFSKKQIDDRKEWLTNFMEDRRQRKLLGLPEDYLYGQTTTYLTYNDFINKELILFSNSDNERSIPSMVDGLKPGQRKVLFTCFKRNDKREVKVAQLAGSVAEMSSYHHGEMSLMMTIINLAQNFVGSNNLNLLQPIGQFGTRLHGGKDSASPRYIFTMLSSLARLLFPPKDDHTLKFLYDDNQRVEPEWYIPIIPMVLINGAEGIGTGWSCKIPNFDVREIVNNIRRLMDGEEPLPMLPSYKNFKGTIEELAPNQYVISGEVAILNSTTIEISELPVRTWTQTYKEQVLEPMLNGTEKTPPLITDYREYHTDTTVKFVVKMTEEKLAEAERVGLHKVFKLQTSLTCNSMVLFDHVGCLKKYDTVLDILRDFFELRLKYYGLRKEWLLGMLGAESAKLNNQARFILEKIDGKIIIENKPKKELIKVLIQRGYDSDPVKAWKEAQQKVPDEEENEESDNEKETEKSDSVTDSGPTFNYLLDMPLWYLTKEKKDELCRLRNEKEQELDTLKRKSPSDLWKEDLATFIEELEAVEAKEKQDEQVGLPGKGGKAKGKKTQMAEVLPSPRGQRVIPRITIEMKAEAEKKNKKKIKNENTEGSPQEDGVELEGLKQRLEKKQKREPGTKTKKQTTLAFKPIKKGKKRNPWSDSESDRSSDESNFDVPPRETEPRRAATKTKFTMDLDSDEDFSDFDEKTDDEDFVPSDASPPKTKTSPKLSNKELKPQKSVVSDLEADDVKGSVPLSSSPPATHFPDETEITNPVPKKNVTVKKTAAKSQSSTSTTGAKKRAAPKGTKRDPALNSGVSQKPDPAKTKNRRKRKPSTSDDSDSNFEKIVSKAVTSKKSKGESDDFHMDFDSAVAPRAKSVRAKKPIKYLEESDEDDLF
Data set [6] has the same target. The data set can be described thus: Inhibition of topoisomerase 2alpha-mediated cleavage of double-stranded pRYG DNA assessed as linear DNA at 100 nM by agarose gel electrophoresis.
Data set [7] has the same target. As to the kind of experiment: Inhibition of topoisomerase 2alpha-mediated cleavage of double-stranded pRYG DNA assessed as linear DNA at 100 uM by agarose gel electrophoresis.
Data set [8] has as its target DNA topoisomerase 2-beta (Homo sapiens) (UniProt Q02880). The data set can be described thus: Inhibition of topoisomerase 2beta in human K562 cells assessed as cleavage of supercoiled pRYG DNA at 300 nM by TARDIS assay. Format: cell-based. The note with it: TDE = time-dependent effect.
Data set [9] has the same target. As to the kind of experiment: Inhibition of topoisomerase 2beta in human K562 cells assessed as cleavage of supercoiled pRYG DNA at 300 nM after 0.5 hrs by TARDIS assay relative to control. Format: cell-based.
The target is the same in data set [10]. The data set can be described thus: Inhibition of topoisomerase 2beta in human K562 cells assessed as cleavage of supercoiled pRYG DNA at 300 nM after 24 hrs by TARDIS assay. The data set is classed as cell-based.

Calls of active or inactive are those of the source. The rule behind the calls is not given here.

Chain of DNA topoisomerase 2-beta (Homo sapiens) (Q02880 whole entry): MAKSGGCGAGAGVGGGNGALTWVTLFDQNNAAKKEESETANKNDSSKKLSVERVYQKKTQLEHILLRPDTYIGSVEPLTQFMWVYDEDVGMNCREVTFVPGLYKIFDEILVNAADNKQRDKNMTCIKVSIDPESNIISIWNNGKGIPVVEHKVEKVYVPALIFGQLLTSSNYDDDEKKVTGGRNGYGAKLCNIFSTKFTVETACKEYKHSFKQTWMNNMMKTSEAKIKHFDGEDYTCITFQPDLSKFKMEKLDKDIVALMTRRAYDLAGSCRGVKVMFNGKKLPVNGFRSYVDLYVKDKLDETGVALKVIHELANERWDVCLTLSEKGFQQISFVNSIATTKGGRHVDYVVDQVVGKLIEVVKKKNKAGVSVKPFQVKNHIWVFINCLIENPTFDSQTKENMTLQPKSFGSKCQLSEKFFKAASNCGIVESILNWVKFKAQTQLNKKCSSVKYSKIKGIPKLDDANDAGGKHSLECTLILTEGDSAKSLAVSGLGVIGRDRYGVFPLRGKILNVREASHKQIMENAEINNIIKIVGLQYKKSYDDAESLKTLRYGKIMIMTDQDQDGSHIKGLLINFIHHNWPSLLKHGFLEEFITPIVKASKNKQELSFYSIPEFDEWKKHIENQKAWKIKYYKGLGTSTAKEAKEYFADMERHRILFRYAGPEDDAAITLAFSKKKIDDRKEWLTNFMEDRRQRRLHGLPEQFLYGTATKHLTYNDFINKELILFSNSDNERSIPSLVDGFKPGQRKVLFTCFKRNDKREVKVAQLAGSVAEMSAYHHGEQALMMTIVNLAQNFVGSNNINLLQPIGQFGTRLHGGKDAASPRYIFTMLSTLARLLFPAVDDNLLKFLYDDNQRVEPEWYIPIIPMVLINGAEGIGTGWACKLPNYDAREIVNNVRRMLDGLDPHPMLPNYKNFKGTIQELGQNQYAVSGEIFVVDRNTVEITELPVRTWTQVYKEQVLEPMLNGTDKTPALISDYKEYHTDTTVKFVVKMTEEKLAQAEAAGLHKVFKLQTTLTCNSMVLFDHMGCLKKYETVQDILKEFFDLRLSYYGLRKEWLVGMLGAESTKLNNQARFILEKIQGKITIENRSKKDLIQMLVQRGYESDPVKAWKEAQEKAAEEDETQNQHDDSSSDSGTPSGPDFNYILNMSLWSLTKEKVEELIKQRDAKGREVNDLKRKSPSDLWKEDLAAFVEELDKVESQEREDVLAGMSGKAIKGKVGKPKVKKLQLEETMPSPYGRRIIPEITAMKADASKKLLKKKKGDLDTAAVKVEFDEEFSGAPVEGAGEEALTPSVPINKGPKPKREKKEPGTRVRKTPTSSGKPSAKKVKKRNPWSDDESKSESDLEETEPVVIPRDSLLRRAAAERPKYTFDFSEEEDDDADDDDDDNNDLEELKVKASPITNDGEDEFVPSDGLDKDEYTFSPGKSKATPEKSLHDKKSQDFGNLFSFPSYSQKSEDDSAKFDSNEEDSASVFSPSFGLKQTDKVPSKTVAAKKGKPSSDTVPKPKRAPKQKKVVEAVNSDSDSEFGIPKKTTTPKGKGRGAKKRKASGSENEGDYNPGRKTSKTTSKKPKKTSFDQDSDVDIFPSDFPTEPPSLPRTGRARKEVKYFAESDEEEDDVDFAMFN

For `C[C@]12CC[C@H](O)C[C@H]1CC[C@@H]1[C@@H]2CC[C@]2(C)[C@@H](C3=CC(=O)OC3)CC[C@]12O` [DIGITOXIGENIN], the IC50 with TK-10 [1] came to 76.5 nM; in the data set with MCF7 it was 194 nM; in the data set with UACC-62 it was 349 nM.

Take `C[C@H]1O[C@@H](O[C@H]2[C@@H](O)C[C@H](O[C@H]3[C@@H](O)C[C@H](O[C@H]4CC[C@@]5(C)[C@H](CC[C@@H]6[C@@H]5CC[C@]5(C)[C@@H](C7=CC(=O)OC7)CC[C@]65O)C4)O[C@@H]3C)O[C@@H]2C)C[C@H](O)[C@@H]1O` [DIGITOXIN]: the IC50 turned out to be 3.2 nM in the data set on TK-10 [1], 10.2 nM with MCF7, 33.5 nM in the data set with UACC-62 and 6.4 nM with K562. The compound further displayed a concentration in the data set filed under Homo sapiens of 19.6 nM. Moreover, the viability at 0.003 µM in the data set with TK-10 [2] was 52.1%. The results for the Activity (in the data set with TK-10 [3]; with TK-10 [4]; in [8]) were 41.3%, 6.6% and “tde”, respectively. In addition, the outcome in data set [5] and in data set [6] was inactive. Besides, the outcome in data set [7], in data set [9] and in [10] was Active.

Turning to `C[C@]12CC[C@H](O)C[C@H]1CC[C@@H]1[C@@H]2C[C@@H](O)[C@]2(C)[C@@H](C3=CC(=O)OC3)CC[C@]12O` [DIGOXIGENIN], the IC50 in the data set on TK-10 [1] stood at 318 nM; in the data set on MCF7, 507 nM; in the data set on UACC-62, 416 nM.

`C[C@H]1O[C@@H](O[C@H]2[C@@H](O)C[C@H](O[C@H]3[C@@H](O)C[C@H](O[C@H]4CC[C@@]5(C)[C@H](CC[C@@H]6[C@@H]5C[C@@H](O)[C@]5(C)[C@@H](C7=CC(=O)OC7)CC[C@]65O)C4)O[C@@H]3C)O[C@@H]2C)C[C@H](O)[C@@H]1O` [DIGOXIN]: the IC50 in the data set with TK-10 [1] stood at 14.6 nM; with MCF7, 24.1 nM; with UACC-62, 29.5 nM; in the data set on K562, 28.2 nM. This compound displayed a concentration in the data set filed under Homo sapiens of 0.6 nM.

In the case of `COc1cc([C@@H]2c3cc4c(cc3[C@@H](O[C@@H]3O[C@@H]5CO[C@@H](C)O[C@H]5[C@H](O)[C@H]3O)[C@H]3COC(=O)[C@H]23)OCO4)cc(OC)c1O` [ETOPOSIDE], the figures for the half-maximal inhibitory concentration (IC50) with TK-10 [1], with MCF7 and with UACC-62 were 9950 nM, 878 nM and 1130 nM, respectively.

`C[C@]12CC[C@H](O)C[C@H]1CC[C@@H]1[C@@H]2CC[C@]2(C)[C@@H](C3=CC(=O)OC3)[C@@H](O)C[C@]12O` [GITOXIGENIN]: the IC50 in the data set with TK-10 [1] is 416 nM; with MCF7, 1810 nM; in the data set with UACC-62, 2840 nM.

For `C[C@H]1O[C@@H](O[C@H]2[C@@H](O)C[C@H](O[C@H]3[C@@H](O)C[C@H](O[C@H]4CC[C@@]5(C)[C@H](CC[C@@H]6[C@@H]5CC[C@]5(C)[C@@H](C7=CC(=O)OC7)[C@@H](O)C[C@]65O)C4)O[C@@H]3C)O[C@@H]2C)C[C@H](O)[C@@H]1O` [GITOXIN], the figures for the IC50 with TK-10 [1], in the data set on MCF7 and with UACC-62 were 131 nM, 252 nM and 369 nM, respectively.
